Drawing on ChEMBL document CHEMBL3046196, “Dimeric 2-(2-chlorophenyl)-quinazolin-4-ones as potential antimicrobial agents” (2012), this text covers MIC99 for 14 compounds.

Format in all cases: functional
One test has as its system Aspergillus clavatus. The test is described as follows: Antimicrobial activity against Aspergillus clavatus MTCC 1323.
For another test, the system named is Pseudomonas aeruginosa. Briefly: Antimicrobial activity against Pseudomonas aeruginosa MTCC 1688 after 24 and 48 hr by serial broth dilution method. For orientation: Broth dilution looks for growth in wells or tubes with falling amounts of substance.
For a further test, the system named is Candida albicans. Briefly: Antimicrobial activity against Candida albicans MTCC 227.
For a further test, the system named is Escherichia coli. Briefly: Antimicrobial activity against Escherichia coli MTCC 443 after 24 and 48 hr by serial broth dilution method.
Another test concerns Staphylococcus aureus. The test is described as follows: Antimicrobial activity against Staphylococcus aureus MTCC 96 after 24 and 48 hr by serial broth dilution method.
Another test deals with Streptococcus pyogenes. Briefly: Antimicrobial activity against Streptococcus pyogenes MTCC 442 after 24 and 48 hr by serial broth dilution method.
The subject of the next test is Aspergillus niger. The test is described as follows: Antimicrobial activity against Aspergillus niger MTCC 282.

Usually MIC99 stands for an inhibitory concentration at the 99% level, which refers to growth in some studies and to a panel of isolates in others. Low values mean higher susceptibility, high ones lower susceptibility.

In brackets after ≈: the same amount, converted by molar mass.

Regarding `O=c1c2ccccc2nc(-c2ccccc2Cl)n1CCc1ccc2nc(-c3ccccc3Cl)n(-c3ccc([N+](=O)[O-])cc3)c(=O)c2c1`, the MIC99 in the test on Aspergillus clavatus was 500 µg/mL (≈ 757 µM); with Pseudomonas aeruginosa, 500 µg/mL (≈ 757 µM); in the test on Candida albicans it was 500 µg/mL (≈ 757 µM); against Escherichia coli, 100 µg/mL (≈ 151 µM); in the test on Staphylococcus aureus it was 200 µg/mL (≈ 303 µM); against Streptococcus pyogenes, 100 µg/mL (≈ 151 µM). The compound also displayed an MIC99 in the test with Aspergillus niger of 500 µg/mL (≈ 757 µM).
`Cc1ccc(C)c(-n2c(-c3ccccc3Cl)nc3ccc(CCn4c(-c5ccccc5Cl)nc5ccccc5c4=O)cc3c2=O)c1`: the MIC99 in the test on Aspergillus clavatus was 500 µg/mL (≈ 777 µM); against Pseudomonas aeruginosa it was 200 µg/mL (≈ 311 µM); with Candida albicans, 200 µg/mL (≈ 311 µM); with Escherichia coli, 100 µg/mL (≈ 155 µM); in the test on Staphylococcus aureus, 100 µg/mL (≈ 155 µM); with Streptococcus pyogenes, 25 µg/mL (≈ 38.8 µM). For the same compound, the MIC99 with Aspergillus niger came to 500 µg/mL (≈ 777 µM).
Regarding `Cc1ccc(-n2c(-c3ccccc3Cl)nc3ccc(CCn4c(-c5ccccc5Cl)nc5ccccc5c4=O)cc3c2=O)c(C)c1`, the MIC99 against Aspergillus clavatus came out at 500 µg/mL (≈ 777 µM); in the test on Pseudomonas aeruginosa, 100 µg/mL (≈ 155 µM); with Candida albicans it was 100 µg/mL (≈ 155 µM); against Escherichia coli it was 50 µg/mL (≈ 77.7 µM); in the test with Staphylococcus aureus it was 50 µg/mL (≈ 77.7 µM); against Streptococcus pyogenes, 50 µg/mL (≈ 77.7 µM). For the same compound, the MIC99 against Aspergillus niger worked out at 500 µg/mL (≈ 777 µM).
`O=c1c2ccccc2nc(-c2ccccc2Cl)n1CCc1ccc2nc(-c3ccccc3Cl)n(-c3ccccc3[N+](=O)[O-])c(=O)c2c1`: the MIC99 was 1000 µg/mL (≈ 1510 µM) in the test on Aspergillus clavatus; 200 µg/mL (≈ 303 µM) against Pseudomonas aeruginosa; 100 µg/mL (≈ 151 µM) in the test with Candida albicans; 100 µg/mL (≈ 151 µM) against Escherichia coli; 200 µg/mL (≈ 303 µM) in the test with Staphylococcus aureus; 12.5 µg/mL (≈ 18.9 µM) against Streptococcus pyogenes. The MIC99 with Aspergillus niger worked out at 100 µg/mL (≈ 151 µM).
For `COC1=CC(=O)C[C@@H](C)[C@]12Oc1c(Cl)c(OC)cc(OC)c1C2=O` [GRISEOFULVIN], the MIC99 was found to be 100 µg/mL (≈ 283 µM) in the test with Aspergillus clavatus, 500 µg/mL (≈ 1420 µM) against Candida albicans and 100 µg/mL (≈ 283 µM) against Aspergillus niger.
Turning to `O=c1c2ccccc2nc(-c2ccccc2Cl)n1CCc1ccc2nc(-c3ccccc3Cl)n(-c3ccccc3Cl)c(=O)c2c1`, the MIC99 was determined as 100 µg/mL (≈ 154 µM) in the test with Aspergillus clavatus; 500 µg/mL (≈ 769 µM) in the test on Pseudomonas aeruginosa; 500 µg/mL (≈ 769 µM) with Candida albicans; 500 µg/mL (≈ 769 µM) against Escherichia coli; 200 µg/mL (≈ 308 µM) against Staphylococcus aureus; 50 µg/mL (≈ 76.9 µM) against Streptococcus pyogenes. Moreover, the MIC99 in the test with Aspergillus niger came out at 100 µg/mL (≈ 154 µM).
In the case of `COc1ccc(-n2c(-c3ccccc3Cl)nc3ccc(CCn4c(-c5ccccc5Cl)nc5ccccc5c4=O)cc3c2=O)c([N+](=O)[O-])c1`, the MIC99 in the test on Aspergillus clavatus worked out at 500 µg/mL (≈ 724 µM); against Pseudomonas aeruginosa it was 500 µg/mL (≈ 724 µM); against Candida albicans it was 100 µg/mL (≈ 145 µM); against Escherichia coli, 100 µg/mL (≈ 145 µM); against Staphylococcus aureus, 100 µg/mL (≈ 145 µM); against Streptococcus pyogenes, 100 µg/mL (≈ 145 µM). The compound further displayed an MIC99 in the test on Aspergillus niger of 500 µg/mL (≈ 724 µM).
For the compound `Cc1cccc(-n2c(-c3ccccc3Cl)nc3ccc(CCn4c(-c5ccccc5Cl)nc5ccccc5c4=O)cc3c2=O)c1C`, the MIC99 in the test on Aspergillus clavatus turned out to be 500 µg/mL (≈ 777 µM); with Pseudomonas aeruginosa, 100 µg/mL (≈ 155 µM); against Candida albicans, 500 µg/mL (≈ 777 µM); in the test on Escherichia coli, 50 µg/mL (≈ 77.7 µM); against Staphylococcus aureus, 500 µg/mL (≈ 777 µM); against Streptococcus pyogenes, 100 µg/mL (≈ 155 µM). For the same compound, the MIC99 against Aspergillus niger worked out at 500 µg/mL (≈ 777 µM).
On to `O=c1c2ccccc2nc(-c2ccccc2Cl)n1CCc1ccc2nc(-c3ccccc3Cl)n(-c3ccc(Br)cc3)c(=O)c2c1`, for which the MIC99 was 1000 µg/mL (≈ 1440 µM) against Aspergillus clavatus; 200 µg/mL (≈ 288 µM) against Pseudomonas aeruginosa; 1000 µg/mL (≈ 1440 µM) against Candida albicans; 200 µg/mL (≈ 288 µM) against Escherichia coli; 500 µg/mL (≈ 720 µM) in the test on Staphylococcus aureus; 500 µg/mL (≈ 720 µM) with Streptococcus pyogenes. Also, the MIC99 in the test on Aspergillus niger stood at 500 µg/mL (≈ 720 µM).
For `O=c1c2ccccc2nc(-c2ccccc2Cl)n1CCc1ccc2nc(-c3ccccc3Cl)n(-c3c(Cl)cc([N+](=O)[O-])cc3Cl)c(=O)c2c1`, the MIC99 with Aspergillus clavatus stood at 100 µg/mL (≈ 137 µM); against Pseudomonas aeruginosa it was 500 µg/mL (≈ 685 µM); with Candida albicans, 500 µg/mL (≈ 685 µM); with Escherichia coli, 500 µg/mL (≈ 685 µM); against Staphylococcus aureus, 100 µg/mL (≈ 137 µM); with Streptococcus pyogenes, 50 µg/mL (≈ 68.5 µM). The MIC99 in the test with Aspergillus niger was 100 µg/mL (≈ 137 µM).
In the case of `Cc1ccc(-n2c(-c3ccccc3Cl)nc3ccc(CCn4c(-c5ccccc5Cl)nc5ccccc5c4=O)cc3c2=O)c([N+](=O)[O-])c1`, the MIC99 in the test on Aspergillus clavatus is 100 µg/mL (≈ 148 µM); in the test with Pseudomonas aeruginosa, 500 µg/mL (≈ 741 µM); in the test with Candida albicans, 500 µg/mL (≈ 741 µM); against Escherichia coli, 200 µg/mL (≈ 296 µM); against Staphylococcus aureus it was 100 µg/mL (≈ 148 µM); with Streptococcus pyogenes it was 25 µg/mL (≈ 37.1 µM). Also, the MIC99 against Aspergillus niger is 1000 µg/mL (≈ 1480 µM).
For `O=c1c2ccccc2nc(-c2ccccc2Cl)n1CCc1ccc2nc(-c3ccccc3Cl)n(-c3cccc([N+](=O)[O-])c3)c(=O)c2c1`, the MIC99 against Aspergillus clavatus was 100 µg/mL (≈ 151 µM); against Pseudomonas aeruginosa it was 100 µg/mL (≈ 151 µM); with Candida albicans, 1000 µg/mL (≈ 1510 µM); in the test with Escherichia coli, 50 µg/mL (≈ 75.7 µM); against Staphylococcus aureus, 50 µg/mL (≈ 75.7 µM); in the test with Streptococcus pyogenes, 50 µg/mL (≈ 75.7 µM). This compound also gave an MIC99 against Aspergillus niger of 1000 µg/mL (≈ 1510 µM).
Turning to `CC1(C)S[C@@H]2[C@H](NC(=O)[C@H](N)c3ccccc3)C(=O)N2[C@H]1C(=O)O` [AMPICILLIN], the MIC99 with Pseudomonas aeruginosa was 100 µg/mL (≈ 286 µM); against Escherichia coli, 100 µg/mL (≈ 286 µM); against Staphylococcus aureus, 250 µg/mL (≈ 715 µM); against Streptococcus pyogenes it was 100 µg/mL (≈ 286 µM).
Regarding `O=c1c2ccccc2nc(-c2ccccc2Cl)n1CCc1ccc2nc(-c3ccccc3Cl)n(-c3ccc(Cl)c(Cl)c3)c(=O)c2c1`, the MIC99 with Aspergillus clavatus stood at 100 µg/mL (≈ 146 µM); against Pseudomonas aeruginosa it was 100 µg/mL (≈ 146 µM); against Candida albicans, 100 µg/mL (≈ 146 µM); in the test on Escherichia coli it was 200 µg/mL (≈ 292 µM); in the test on Staphylococcus aureus, 50 µg/mL (≈ 73.1 µM); with Streptococcus pyogenes it was 50 µg/mL (≈ 73.1 µM). This compound returned an MIC99 in the test with Aspergillus niger of 500 µg/mL (≈ 731 µM).
